{
  "source": "patent US9873709B2",
  "about": "(priority 2013, dated 2018)",
  "note": "Where a name gives a salt, the structure may show the parent alone.",
  "data": [
    {"test_system": "JAK1-dependent STAT6 phosphorylation downstream of IL-13 stimulation in TF-1 human erythroleukemia cells", "test": "cells", "settings": "TF-1, read-out: IL-13-pSTAT6 IC50", "units": {"IC50": "nM"}, "values": [
      {"compound": "O=C(NC1COC2(CCNCC2)C1)c1ccc(Nc2nc3c(N4CCC(O)(c5ccc(Cl)cc5)CC4)cccn3n2)cc1", "note": "(stereo not shown) [Example 1-221, 4-[[8-[4-(4-chlorophenyl)-4-hydroxy-1-piperidyl]-[1,2,4]triazolo[1,5-a]pyridin-2-yl]amino]-N-(1-oxa-8-azaspiro[4.5]decan-3-yl)benzamide]", "IC50": 866},
      {"compound": "O=C(c1ccc(Nc2nc3c(N4CCC(O)(c5ccc(Cl)cc5)CC4)cccn3n2)cc1)N1CC2(CCNC2)C1", "note": "[Example 1-224, [4-[[8-[4-(4-chlorophenyl)-4-hydroxy-1-piperidyl]-[1,2,4]triazolo[1,5-a]pyridin-2-yl]amino]phenyl]-(2,7-diazaspiro[3.4]octan-2-yl)methanone]", "IC50": 111},
      {"compound": "O=C(c1ccc(Nc2nc3c(N4CCC(O)(c5ccc(Cl)cc5)CC4)cccn3n2)cc1)N1CCOC2(CCCNC2)C1", "note": "(stereo not shown) [Example 1-225, [4-[[8-[4-(4-chlorophenyl)-4-hydroxy-1-piperidyl]-[1,2,4]triazolo[1,5-a]pyridin-2-yl]amino]phenyl]-(1-oxa-4,8-diazaspiro[5.5]undecan-4-yl)methanone]", "IC50": 30.8},
      {"compound": "O=C(c1ccc(Nc2nc3c(N4CCC(O)(c5ccc(Cl)cc5)CC4)cccn3n2)cc1)N1CCC2(CCCN2)CC1", "note": "[Example 1-226, [4-[[8-[4-(4-chlorophenyl)-4-hydroxy-1-piperidyl]-[1,2,4]triazolo[1,5-a]pyridin-2-yl]amino]phenyl]-(1,8-diazaspiro[4.5]decan-8-yl)methanone]", "IC50": 79.4},
      {"compound": "O=C(c1ccc(Nc2nc3c(N4CCC(O)(c5ccc(Cl)cc5)CC4)cccn3n2)cc1)N1CCC2(CC1)CNCCO2", "note": "[Example 1-230, [4-[[8-[4-(4-chlorophenyl)-4-hydroxy-1-piperidyl]-[1,2,4]triazolo[1,5-a]pyridin-2-yl]amino]phenyl]-(1-oxa-4,9-diazaspiro[5.5]undecan-9-yl)methanone]", "IC50": 58.1},
      {"compound": "O=C(c1ccc(Nc2nc3c(N4CCC(O)(c5ccc(Cl)cc5)CC4)cccn3n2)cc1)N1CCOC2(CCNCC2)C1", "note": "[Example 1-231, [4-[[8-[4-(4-chlorophenyl)-4-hydroxy-1-piperidyl]-[1,2,4]triazolo[1,5-a]pyridin-2-yl]amino]phenyl]-(1-oxa-4,9-diazaspiro[5.5]undecan-4-yl)methanone]", "IC50": 916},
      {"compound": "O=C(c1ccc(Nc2nc3c(N4CCC(O)(c5ccc(Cl)cc5)CC4)cccn3n2)cc1)N1CCCC12CCCNC2", "note": "(stereo not shown) [Example 1-233, [4-[[8-[4-(4-chlorophenyl)-4-hydroxy-1-piperidyl]-[1,2,4]triazolo[1,5-a]pyridin-2-yl]amino]phenyl]-(1,9-diazaspiro[4.5]decan-1-yl)methanone]", "IC50": 164},
      {"compound": "O=C(c1ccc(Nc2nc3c(N4CCC(O)(c5ccc(Cl)cc5)CC4)cccn3n2)cc1)N1C[C@@H]2CCN[C@@H]2C1", "note": "[Example 1-234]", "IC50": 36.1},
      {"compound": "O=C(c1ccc(Nc2nc3c(N4CCC(O)(c5ccc(Cl)cc5)CC4)cccn3n2)cc1)N1C[C@H]2CNC[C@H]2C1", "note": "[Example 1-235, [(3aR,6aS)-2,3,3a,4,6,6a-hexahydro-1H-pyrrolo[3,4-c]pyrrol-5-yl]-[4-[[8-[4-(4-chlorophenyl)-4-hydroxy-1-piperidyl]-[1,2,4]triazolo[1,5-a]pyridin-2-yl]amino]phenyl] methanone]", "IC50": 310},
      {"compound": "O=C(N[C@H]1[C@@H]2CNC[C@@H]21)c1ccc(Nc2nc3c(N4CCC(O)(c5ccc(Cl)cc5)CC4)cccn3n2)cc1", "note": "[Example 1-238, N-[(1R,5S)-3-azabicyclo[3.1.0]hexan-6-yl]-4-[[8-[4-(4-chlorophenyl)-4-hydroxy-1-piperidyl]-[1,2,4]triazolo[1,5-a]pyridin-2-yl]amino]benzamide]", "IC50": 180},
      {"compound": "O=C(c1ccc(Nc2nc3c(N4CCC(O)(c5ccc(Cl)cc5)CC4)cccn3n2)cc1)N1CC[C@H]2CNC[C@H]21", "note": "[Example 1-241, [(3aS,6aS)-3,3a,4,5,6,6a-hexahydro-2H-pyrrolo[2,3-c]pyrrol-1-yl]-[4-[[8-[4-(4-chlorophenyl)-4-hydroxy-1-piperidyl]-[1,2,4]triazolo[1,5-a]pyridin-2-yl]amino]phenyl] methanone]", "IC50": 115},
      {"compound": "CN1CCC(N(C)C(=O)c2ccc(Nc3nc4c(N5CCC(C)(c6ccc(Cl)cc6)CC5)cccn4n3)cc2)CC1", "note": "[Example 1-262, 4-[[8-[4-(4-chlorophenyl)-4-methyl-1-piperidyl]-[1,2,4]triazolo[1,5-a]pyridin-2-yl]amino]-N-methyl-N-(1-methyl-4-piperidyl)benzamide]", "IC50": 120},
      {"compound": "CN1CCC(N(C)C(=O)c2ccc(Nc3nc4c(N5CCC(CC#N)(c6ccc(Cl)c(F)c6)CC5)cccn4n3)cc2)CC1", "note": "[Example 1-263, 4-[[8-[4-(4-chloro-3-fluoro-phenyl)-4-(cyanomethyl)-1-piperidyl]-[1,2,4]triazolo[1,5-a]pyridin-2-yl]amino]-N-methyl-N-(1-methyl-4-piperidyl)benzamide]", "IC50": 18.2},
      {"compound": "CNC(=O)CC1(c2ccc(Cl)cc2)CCN(c2cccn3nc(Nc4ccc(C(=O)N(C)C5CCN(C)CC5)cc4)nc23)CC1", "note": "[Example 1-299, 4-[[8-[4-(4-chlorophenyl)-4-[2-(methylamino)-2-oxo-ethyl]-1-piperidyl]-[1,2,4]triazolo[1,5-a]pyridin-2-yl]amino]-N-methyl-N-(1-methyl-4-piperidyl)benzamide]", "IC50": 55.7},
      {"compound": "CN1CCC(N(C)C(=O)c2ccc(Nc3nc4c(N5CCC(CC(=O)O)(c6ccc(Cl)cc6)CC5)cccn4n3)cc2)CC1", "note": "[Example 1-301, 2-[4-(4-chlorophenyl)-1-[2-[4-[methyl-(1-methyl-4-piperidyl)carbamoyl]anilino]-[1,2,4]triazolo[1,5-a]pyridin-8-yl]-4-piperidyl]acetic acid]", "IC50": 179},
      {"compound": "CCOC(=O)N1CC=C(c2cccn3nc(Nc4ccc(C(=O)N(C)C5CCN(C)CC5)cc4)nc23)CC1", "note": "[Example 2-1, ethyl 4-[2-[4-[methyl-(1-methyl-4-piperidyl)carbamoyl]anilino]-[1,2,4]triazolo[1,5-a]pyridin-8-yl]-3,6-dihydro-2H-pyridine-1-carboxylate]", "IC50": 23.7},
      {"compound": "CN1CCC(N(C)C(=O)c2ccc(Nc3nc4c(C5=CCN(C(=O)OC6CC6)CC5)cccn4n3)cc2)CC1", "note": "[Example 2-2, cyclopropyl 4-[2-[4-[methyl-(1-methyl-4-piperidyl)carbamoyl]anilino]-[1,2,4]triazolo[1,5-a]pyridin-8-yl]-3,6-dihydro-2H-pyridine-1-carboxylate]", "IC50": 34},
      {"compound": "CN1CCC(N(C)C(=O)c2ccc(Nc3nc4c(C5=CCN(C(=O)CC(C)(C)O)CC5)cccn4n3)cc2)CC1", "note": "[Example 2-3, 4-[[8-[1-(3-hydroxy-3-methyl-butanoyl)-3,6-dihydro-2H-pyridin-4-yl]-[1,2,4]triazolo[1,5-a]pyridin-2-yl]amino]-N-methyl-N-(1-methyl-4-piperidyl)benzamide]", "IC50": 163},
      {"compound": "CN1CCC(N(C)C(=O)c2ccc(Nc3nc4c(C5=CCN(C(=O)N6CC(C#N)C6)CC5)cccn4n3)cc2)CC1", "note": "[Example 2-5, 4-[[8-[1-(3-cyanoazetidine-1-carbonyl)-3,6-dihydro-2H-pyridin-4-yl]-[1,2,4]triazolo[1,5-a]pyridin-2-yl]amino]-N-methyl-N-(1-methyl-4-piperidyl)benzamide]", "IC50": 1090},
      {"compound": "CN1CCC(N(C)C(=O)c2ccc(Nc3nc4c(C5=CCN(C(=O)OCC#N)CC5)cccn4n3)cc2)CC1", "note": "[Example 2-7, cyanomethyl 4-[2-[4-[methyl-(1-methyl-4-piperidyl)carbamoyl]anilino]-[1,2,4]triazolo[1,5-a]pyridin-8-yl]-3,6-dihydro-2H-pyridine-1-carboxylate]", "IC50": 42.9},
      {"compound": "CN1CCC(N(C)C(=O)c2ccc(Nc3nc4c(C5=CCN(Cc6ccccc6)CC5)cccn4n3)cc2)CC1", "note": "[Example 2-8, 4-[[8-(1-benzyl-3,6-dihydro-2H-pyridin-4-yl)-[1,2,4]triazolo[1,5-a]pyridin-2-yl]amino]-N-methyl-N-(1-methyl-4-piperidyl)benzamide; hydrochloride]", "IC50": 849},
      {"compound": "CN1CCC(N(C)C(=O)c2ccc(Nc3nc4c(C5=CCN(C(=O)CCO)CC5)cccn4n3)cc2)CC1", "note": "[Example 2-9, 4-[[8-[1-(3-hydroxypropanoyl)-3,6-dihydro-2H-pyridin-4-yl]-[1,2,4]triazolo[1,5-a]pyridin-2-yl]amino]-N-methyl-N-(1-methyl-4-piperidyl)benzamide]", "IC50": 620},
      {"compound": "CCOC(=O)N1CC=C(c2cccn3nc(Nc4ccc(C(=O)NCC(C)(C)N5CCOCC5)cc4)nc23)CC1", "note": "[Example 2-11, ethyl 4-[2-[4-[(2-methyl-2-morpholino-propyl)carbamoyl]anilino]-[1,2,4]triazolo[1,5-a]pyridin-8-yl]-3,6-dihydro-2H-pyridine-1-carboxylate]", "IC50": 6.7},
      {"compound": "CCOC(=O)N1CC=C(c2cccn3nc(Nc4ccc(C(=O)NCCC5CCNCC5)cc4)nc23)CC1", "note": "[Example 2-13, ethyl 4-[2-[4-[2-(4-piperidyl)ethylcarbamoyl]anilino]-[1,2,4]triazolo[1,5-a]pyridin-8-yl]-3,6-dihydro-2H-pyridine-1-carboxylate]", "IC50": 338},
      {"compound": "CCOC(=O)N1CC=C(c2cccn3nc(Nc4ccc(C(=O)N5CCCC5c5ccncc5)cc4)nc23)CC1", "note": "(stereo not shown) [Example 2-15, ethyl 4-[2-[4-[2-(4-pyridyl)pyrrolidine-1-carbonyl]anilino]-[1,2,4]triazolo[1,5-a]pyridin-8-yl]-3,6-dihydro-2H-pyridine-1-carboxylate]", "IC50": 17.1},
      {"compound": "CCOC(=O)N1CC=C(c2cccn3nc(Nc4ccc(C(=O)N5CCN(c6cccnc6)CC5)cc4)nc23)CC1", "note": "[Example 2-19, ethyl 4-[2-[4-[4-(3-pyridyl)piperazine-1-carbonyl]anilino]-[1,2,4]triazolo[1,5-a]pyridin-8-yl]-3,6-dihydro-2H-pyridine-1-carboxylate]", "IC50": 55.7},
      {"compound": "CCOC(=O)N1CC=C(c2cccn3nc(Nc4ccc(C(=O)N5CCN(C)CC(CO)C5)cc4)nc23)CC1", "note": "(stereo not shown) [Example 2-20, ethyl 4-[2-[4-[6-(hydroxymethyl)-4-methyl-1,4-diazepane-1-carbonyl]anilino]-[1,2,4]triazolo[1,5-a]pyridin-8-yl]-3,6-dihydro-2H-pyridine-1-carboxylate]", "IC50": 256},
      {"compound": "CCOC(=O)N1CC=C(c2cccn3nc(Nc4ccc(C(=O)N5CCNCC5C)cc4)nc23)CC1", "note": "(stereo not shown) [Example 2-24, ethyl 4-[2-[4-(2-methylpiperazine-1-carbonyl)anilino]-[1,2,4]triazolo[1,5-a]pyridin-8-yl]-3,6-dihydro-2H-pyridine-1-carboxylate]", "IC50": 21.6}
    ]}
  ]
}
